Test results: US12291528B2, “Crystalline imidazo[4,5-b]pyridine compound, pharmaceutical compositions, and their use in treating medical conditions” (Genzyme Corporation, priority 2021, dated 2025)
Like-named read-outs stand apart in the source and are kept apart here.

Assays:
[1] = Knee joint concentration and knee/plasma ratio after intra-articular administration to rats; assay type: in vivo, Sprague Dawley rats; settings: for knee concentration of compound (in words): 0.1 mg dose, 672 hours, majority of animals
Procedure: (§1) Male rats were administered one of the following Test Articles via intra-articular administration to the left knee joint and thereafter pharmacokinetic properties were monitored: crystalline 3-(3-methoxy-4-((4-methoxybenzyl)oxy)benzyl)-6-(1-methyl-1H-pyrazol-4-yl)-3H-imidazo[4,5-b]pyridin-2-amine monohydrate Form 3 (“Form 3 Compound”) or crystalline 3-(3-methoxy-4-((4-methoxybenzyl)oxy)benzyl)-6-(1-methyl-1H-pyrazol-4-yl)-3H-imidazo[4,5-b]pyridin-2-amine monohydrate Form 1 (“Form 1 Compound”).
(§2) Male Sprague Dawley rats were allocated into four groups, where each group contained 12 rats having a weight in the range of 250 g to 300 g and an age of 7 to 9 weeks. Test Article was administered in the form of a suspension via intra-articular injection to the left knee joint of the rats according to the experimental design set forth in Table 1 below.
(§3) Each Test Article contained the specified methoxy-4-((4-methoxybenzyl)oxy)benzyl)-6-(1-methyl-1H-pyrazol-4-yl)-3H-imidazo[4,5-b]pyridin-2-amine monohydrate compound suspended in vehicle. Vehicle was […], 4.5% sorbitol, in aqueous phosphate buffer at pH 7.4. Each Test Article in the form of a suspension contained 20 mg/mL methoxy-4-((4-methoxy-benzyl)oxy)benzyl)-6-(1-methyl-1H-pyrazol-4-yl)-3H-imidazo[4,5-b]pyridin-2-amine monohydrate in the specified crystalline form.
The left knee joint (without injuring the articular capsule) of the rats together with 5-10 mm of both tibia and femur was collected from the first 6 animals/group after sacrifice at the last blood collection time point at approximately 672 hours postdose. The harvested knee joint was weighed. The left knee joint (without injuring the articular capsule) of the rats together with 5-10 mm of both tibia and femur was collected from the second 6 animals/group after sacrifice at the last blood collection time point at approximately 1344 hours postdose. The harvested knee joint was weighed. Tissue samples were maintained on dry ice prior to storage at −60 to −80° C. The knee joint samples were pulverized, then extracted with acetonitrile/water to provide a solution that was analyzed by using liquid chromatograph-mass spectrometry to determine the amount of the compound methoxy-4-((4-methoxybenzyl)oxy)benzyl)-6-(1-methyl-1H-pyrazol-4-yl)-3H-imidazo[4,5-b]pyridin-2-amine.

[2] = Comparison of stability: temperature of dehydration; assay type: physicochemical
Source text: Stability of crystalline 3-(3-methoxy-4-((4-methoxybenzyl)oxy)benzyl)-6-(1-methyl-1H-pyrazol-4-yl)-3H-imidazo[4,5-b]pyridin-2-amine monohydrate Form 3 was compared to crystalline 3-(3-methoxy-4-((4-methoxybenzyl)oxy)benzyl)-6-(1-methyl-1H-pyrazol-4-yl)-3H-imidazo[4,5-b]pyridin-2-amine monohydrate Form 1. The physical property analyzed was temperature of dehydration. Crystalline 3-(3-methoxy-4-((4-methoxybenzyl)oxy)benzyl)-6-(1-methyl-1H-pyrazol-4-yl)-3H-imidazo[4,5-b]pyridin-2-amine monohydrate Form 1 is that described in international patent application publication WO 2016/100677.

[3] = Dialysis dissolution in simulated intra-articular fluid; assay type: physicochemical; settings: for average release rate: at the 7 day time point, PBS pH 7.4 with BSA, 37° C.; for average release rate / one-half dissolution time: listed as crystalline 3-(3-methoxy-4-(4-methoxybenzyl)oxy)benzyl)-6-(1-methyl-1H-pyrazol-, monohydrate; for one-half dissolution time: dialysis bag, BSA/sodium hyaluronate in PBS pH 7.4, 37° C., 20 RPM
Procedure: Dialysis dissolution of the following Test Compositions in simulated intra-articular fluid was analyzed: • Crystalline 3-(3-methoxy-4-((4-methoxybenzyl)oxy)benzyl)-6-(1-methyl-1H-pyrazol-4-yl)-3H-imidazo[4,5-b]pyridin-2-amine Monohydrate Form 3, and • Crystalline 3-(3-methoxy-4-((4-methoxybenzyl)oxy)benzyl)-6-(1-methyl-1H-pyrazol-4-yl)-3H-imidazo[4,5-b]pyridin-2-amine Monohydrate Form 1.
Procedurally, Test Composition was placed into a dialysis bag along with Medium A. The dialysis bag was then closed and placed into a closed bottle containing Medium B. Medium A and B were preheated to 37° C. before use in the experiment. The closed bottles were placed into a rotating mixer system operating at 20 RPM so as to avoid suspension sedimentation inside the dialysis bag. An aliquot of Medium B from the bottle was removed at the following time points and analyzed by high-performance liquid chromatography with UV detection to determine the amount of 3-(3-methoxy-4-((4-methoxybenzyl)oxy)benzyl)-6-(1-methyl-1H-pyrazol-4-yl)-3H-imidazo[4,5-b]pyridin-2-amine in Medium B due to dialysis dissolution of the Test Composition from Medium A through the dialysis bag to Medium B: 3 hr, 6 hr, 24 hr, 29 hr, 48 hr, 72 hr, 144 hr, 168 hr, 192 hr, 216 hr, and 240 hr. One Test Composition was analyzed at the 360 hour timepoint. Medium A was bovine serum albumin (BSA) at 40 g/L (+0.2 g/L sodium azide), sodium hyaluronate at 3 g/L in reconstituted phosphate buffer saline pH 7.4. Medium B was bovine serum albumin (BSA) at 40 g/L (+0.2 g/L sodium azide) in reconstituted phosphate buffer saline pH 7.4.

[4] = Pharmacokinetic parameters in plasma after intra-articular administration to rats; assay type: in vivo, Sprague Dawley rats; settings: for Tmax / AUC(0-t) / AUC0-inf / Cmax / AUC0-672 / AUC0-1344 / Ratio Result from Compound Form 3/Compound Form 1: AUC0-672 / Ratio Result from Compound Form 3/Compound Form 1: AUC0-1344 / Ratio Result from Compound Form 3/Compound Form 1: AUC0-inf / Ratio Result from Compound Form 3/Compound Form 1: Cmax: plasma; for Tmax / AUC(0-t) / AUC0-inf / Cmax / AUC0-672 / AUC0-1344: male rat; for Tmax: range printed in row below; for AUC(0-t) / AUC0-inf / Cmax / AUC0-672 / AUC0-1344: mean
Procedure: as §1, §2, §3
Blood samples were collected from the jugular vein of the rats via syringe and needle and transferred into tubes containing K3EDTA. Blood samples were collected from the first six animals/group at 2 minutes, 10 minutes, 1 hr, 4 hr, 12 hr, 72 hr, 336 hr, and 672 hr after administration of Test Article. Blood samples were collected from the second six animals/group at 5 minutes, 0.5 hr, 2 hr, 8 hr, 24 hr, 168 hr, 1008 hr, and 1344 hr after administration of Test Article. Following centrifugation of the blood samples, plasma was cooled using dry ice until it was subjected to analytical analysis using liquid chromatograph-mass spectrometry to determine the amount of the compound methoxy-4-((4-methoxybenzyl)oxy)benzyl)-6-(1-methyl-1H-pyrazol-4-yl)-3H-imidazo[4,5-b]pyridin-2-amine.

Dynamic vapor sorption = assay type: physicochemical; settings: 25° C., 2 cycles of increasing and decreasing relative humidity, steps of 5% RH
Procedure: A dynamic vapor sorption isotherm plot of crystalline 3-(3-methoxy-4-((4-methoxybenzyl)oxy)benzyl)-6-(1-methyl-1H-pyrazol-4-yl)-3H-imidazo[4,5-b]pyridin-2-amine monohydrate Form 3 is provided in FIG. 3. The dynamic vapor sorption isotherm plot results are from the procedure where after a drying stage at 0% relative humidity, compound sample was exposed to 2 cycles of increasing and decreasing relative humidity at 25° C., with steps of 5% relative humidity, where mass of the sample was recorded throughout the experiment.

[5] = 0.1 mg/knee, 672 hr, monohydrate
[6] = 1 mg/knee, 1344 hr, monohydrate
[7] = 0.1 mg/knee intra-articular, monohydrate
[8] = 1 mg/knee intra-articular, monohydrate

COc1ccc(COc2ccc(Cn3c(N)nc4cc(-c5cnn(C)c5)cnc43)cc2OC)cc1 [Form 1 Compound, 3-(3-methoxy-4-((4-methoxybenzyl)oxy)benzyl)-6-(1-methyl-1H-pyrazol-4-yl)-3H-imidazo[4,5-b]pyridin-2-amine monohydrate, reference compound]
knee concentration of compound (in words) ([1]; monohydrate): below the limit of quantification in the majority of animals | Mean Knee Concentration of Compound [1, 5]: 852 ng/g | Mean Knee/Plasma Concentration Ratio [1, 5]: 58800 | Mean Knee Concentration of Compound ([1]; 0.1 mg/knee, 1344 hr, monohydrate): <LLOQ | Mean Knee Concentration of Compound ([1]; 1 mg/knee, 672 hr, monohydrate): 37400 ng/g | Mean Knee/Plasma Concentration Ratio ([1]; 1 mg/knee, 672 hr, monohydrate): 22100 | Mean Knee Concentration of Compound [1, 6]: 4560 ng/g | Mean Knee/Plasma Concentration Ratio [1, 6]: 19000 | dehydration behaviour ([2]; room temperature, stream of nitrogen gas): undergo dehydration at room temperature | average release rate [3]: 0.54 %/hr | one-half dissolution time [3]: 66 h | Tmax ([4]; Sprague Dawley, 0.1 mg/knee intra-articular): 4 h | AUC(0-t) ([4]; male, Sprague Dawley, rat, 0.1 mg, 0.1 mg/knee intra-articular, read-out: AUC0-672): 1350 ng·h/mL | AUC0-inf ([4]; male, Sprague Dawley, rat, 0.1 mg, 0.1 mg/knee intra-articular, read-out: AUC0-inf): 1290 ng·h/mL | AUC(0-t) ([4]; male, Sprague Dawley, rat, 0.1 mg, 0.1 mg/knee intra-articular, summary from second six animals, read-out: AUC0-1344): 1330 ng·h/mL | Cmax [4, 7]: 34.3 ng/mL | AUC0-672 [4, 8]: 10600 ng·h/mL | AUC0-inf [4, 8]: 11800 ng·h/mL | Cmax [4, 8]: 71.6 ng/mL | AUC0-1344 ([4]; 1 mg/knee intra-articular, summary from second six animals, monohydrate): 11100 ng·h/mL

COc1ccc(COc2ccc(Cn3c(N)nc4cc(-c5cnn(C)c5)cnc43)cc2OC)cc1 [Form 3 Compound, 3-(3-methoxy-4-((4-methoxybenzyl)oxy)benzyl)-6-(1-methyl-1H-pyrazol-4-yl)-3H-imidazo[4,5-b]pyridin-2-amine monohydrate]
knee concentration of compound (in words) ([1]; monohydrate): consistently higher than the concentration | Knee concentration: Ratio of Form 3 Compound/Form 1 Compound ([1]; 0.1 mg/knee, 672 hr): 5.62 | Knee/plasma ratio: Ratio of Form 3 Compound/Form 1 Compound ([1]; 0.1 mg/knee, 672 hr): 0.733 | Mean Knee Concentration of Compound [1, 5]: 4790 ng/g | Mean Knee/Plasma Concentration Ratio [1, 5]: 43100 | Mean Knee/Plasma Concentration Ratio ([1]; 0.1 mg/knee, 1344 hr): 77400 | Knee concentration: Ratio of Form 3 Compound/Form 1 Compound ([1]; 1 mg/knee, 672 hr): 5.40 | Knee/plasma ratio: Ratio of Form 3 Compound/Form 1 Compound ([1]; 1 mg/knee, 672 hr): 2.64 | Mean Knee Concentration of Compound ([1]; 1 mg/knee, 672 hr, monohydrate): 202000 ng/g | Mean Knee/Plasma Concentration Ratio ([1]; 1 mg/knee, 672 hr, monohydrate): 58300 | Knee concentration: Ratio of Form 3 Compound/Form 1 Compound ([1]; 1 mg/knee, 1344 hr): 13.6 | Knee/plasma ratio: Ratio of Form 3 Compound/Form 1 Compound ([1]; 1 mg/knee, 1344 hr): 1.96 | Mean Knee Concentration of Compound [1, 6]: 62200 ng/g | Mean Knee/Plasma Concentration Ratio [1, 6]: 37200 | concentration at 1344 hr ([1]; male, Sprague Dawley, rat, knee joint, other: intra-articular injection to the left knee joint, 0.1 mg/knee, 1344 hr, read-out: Mean Knee Concentration of Compound): 383 ng/g | thermodynamic stability compared to monohydrate Form 1 [2]: thermodynamically more stable | temperature of dehydration ([2]; heated): 130 °C | hygroscopicity (dynamic vapor sorption isotherm) (Dynamic vapor sorption): not hygroscopic | average release rate [3]: 0.35 %/hr | one-half dissolution time [3]: 112 h | dialysis dissolution rate compared to Form 1 ([3]; simulated intra-articular fluid): significantly lower | Tmax ([4]; Sprague Dawley, 1 mg/knee intra-articular): 4 h | absorption compared to Form 1 Compound ([4]; intra-articular, rat): slower and more prolonged | AUC0-inf ([4]; male, Sprague Dawley, rat, 1 mg, 1 mg/knee intra-articular, read-out: AUC0-inf): 8040 ng·h/mL | Cmax ([4]; male, Sprague Dawley, rat, 1 mg, 1 mg/knee intra-articular, read-out: Cmax): 52.1 ng/mL | AUC(0-t) ([4]; male, Sprague Dawley, rat, 1 mg, 1 mg/knee intra-articular, summary from second six animals, read-out: AUC0-1344): 7100 ng·h/mL | Ratio Result from Compound Form 3/Compound Form 1: AUC0-672 ([4]; 0.1 mg/knee): 0.508 | Ratio Result from Compound Form 3/Compound Form 1: AUC0-1344 ([4]; 0.1 mg/knee): 0.611 | Ratio Result from Compound Form 3/Compound Form 1: AUC0-inf ([4]; 0.1 mg/knee): 0.587 | Ratio Result from Compound Form 3/Compound Form 1: Cmax ([4]; 0.1 mg/knee): 0.332 | Ratio Result from Compound Form 3/Compound Form 1: AUC0-672 ([4]; 1 mg/knee): 0.494 | Ratio Result from Compound Form 3/Compound Form 1: AUC0-1344 ([4]; 1 mg/knee): 0.640 | Ratio Result from Compound Form 3/Compound Form 1: AUC0-inf ([4]; 1 mg/knee): 0.681 | Ratio Result from Compound Form 3/Compound Form 1: Cmax ([4]; 1 mg/knee): 0.728 | AUC0-672 [4, 7]: 686 ng·h/mL | AUC0-inf [4, 7]: 757 ng·h/mL | Cmax [4, 7]: 11.4 ng/mL | AUC0-1344 ([4]; 0.1 mg/knee intra-articular, summary from second six animals, monohydrate): 813 ng·h/mL | AUC0-672 [4, 8]: 5240 ng·h/mL
